Test results as given in patent US20100119483A1, “PEPTIDE VIRAL ENTRY INHIBITORS” (Schering Corporation, priority 2004, published 2010).
Values joined by “and” are separate entries in the source; they are usually repeats but may differ in a detail not shown here. Equal entries are not always repeated.

System: HCV pseudoparticles
Assay: HCV pseudoparticle (HCVpp) entry assay in Huh7 hepatoma cells, luciferase readout
Type: cell-based, hepatitis C virus
Details: for HCVpp % inh: truncated peptides tested at 50 uM in 1% DMSO; for % of control at ~30 uM: percentage of hepatitis C virus cellular entry at 30 μM peptide vs uninhibited control
Method: HCV pseudotype particle generation. Single cycle HCV pseudoparticles are composed of a replication-defective HIV genome and HCV envelope proteins. These pseudoparticles were made by transfecting 293T cells with 5 ug of each pNL43E-R-luc (Chen et al., J. Virol. 68(2):654-60 (1994)) and plasmid expressing HCV envelope proteins pCMV/E1-2 with profection transfection kit from Promega (Madison, Wis.). The medium was refreshed 12-24 hours after transfection and supernatant was collected 48 hours after transfection. The supernatant from a transfection of only pNL43E-R-luc was used each time as a control for non specific entry events.
Infection of hepatoma cell lines with HCV pseudotype particles and screen for inhibitory peptides. The hepatoma cells, Huh7, was seeded at 8000 cells in 90 ul medium in 96-well plate. In the case of the inhibitor screen, the inhibitor was incubated with cells for one hour at 37° C. and then 50 ul viral supernatant was added to the cells 24 hours after seeding. The viral stock was pre-tittered and diluted to yield approximately 10,000 to 20,000 RLU. The cells were incubated at 37° C. with 5% CO2 for additional 72 hours and were harvested for luciferase assay. Peptide stocks were prepared in 100% DMSO at 10 mg/ml and were first screened at 100 ug/ml and then a dose responsive curve was generated with 10 points 3-fold titration starting from 100 ug/ml.
The peptide of SEQ ID NO: 77 was first serial diluted by the factor of 3 in 100% DMSO from 100 ug/ml and then transferred to the assay plates at 100-fold dilution. The peptide was first incubated with cells and HCVpp (A) or HIVpp (B), respectively, for 30 minutes at […] in this experiment. Then, the medium containing the peptide was removed from the cells and virus with peptide was added to the cells. Cells were incubated for 72 hours and then were harvested for luciferase assay. Two separate trials were performed.
In addition, the peptide of SEQ ID NO: 77 was mutated at several positions and assayed in the HCV entry assay discussed above. […] The assays were performed essentially as described above.

[1] = 0.1 nM of peptide (printed for three rows), two values per peptide and row
[2] = 0.3 nM of peptide, two values per peptide
[3] = 1 nM of peptide, two values per peptide
[4] = 3 nM of peptide, two values per peptide
[5] = 10 nM of peptide, two values per peptide
[6] = 30 nM of peptide, two values per peptide
[7] = 100 nM of peptide, two values per peptide
[8] = 300 nM of peptide, two values per peptide
[9] = 30000 nM of peptide, two values per peptide
[10] = 0.00003 uM of peptide, two values per peptide and row
[11] = 0.0001 uM of peptide, two values per peptide
[12] = 0.0003 uM of peptide, two values per peptide
[13] = 0.001 uM of peptide, two values per peptide
[14] = 0.003 uM of peptide, two values per peptide
[15] = 0.01 uM of peptide, two values per peptide
[16] = 0.03 uM of peptide, two values per peptide
[17] = 0.1 uM of peptide, two values per peptide
[18] = 0.3 uM of peptide, two values per peptide
[19] = 30 uM of peptide, two values per peptide
[20] = 10000 nM of peptide, two values per peptide

Substance: A-I-K-W-E-Y-V-L-L-L-F-L-L [SEQ ID NO: 106]
- HCVpp % inh: 92%

Substance: A-I-K-P-E-Y-V-L-L-L-F-L-L (AIKPEYVLLLFLL; HCV peptide) [SEQ ID NO: 118]
- % control (HCVpp entry), proline scanning [1]: 87 % control and 80 % control and 108 % control and 103 % control and 79 % control and 110 % control
- % control (HCVpp entry), proline scanning [2]: 92 % control and 101 % control
- % control (HCVpp entry), proline scanning [3]: 99 % control and 74 % control
- % control (HCVpp entry), proline scanning [4]: 84 % control and 108 % control
- % control (HCVpp entry), proline scanning [5]: 83 % control and 116 % control
- % control (HCVpp entry), proline scanning [6]: 93 % control and 63 % control
- % control (HCVpp entry), proline scanning [7]: 53 % control and 47 % control
- % control (HCVpp entry), proline scanning [8]: 29 % control and 38 % control
- % control (HCVpp entry), proline scanning [9]: 33 % control and 24 % control

Substance: A-K-K-W-E-Y-V-L-L-L-E-L-L [SEQ ID NO: 102]
- % control (HCVpp entry), lysine scanning [1]: 104 % control and 102 % control and 89 % control and 108 % control and 98 % control and 106 % control
- % control (HCVpp entry), lysine scanning [2]: 141 % control and 107 % control
- % control (HCVpp entry), lysine scanning [3]: 96 % control and 83 % control
- % control (HCVpp entry), lysine scanning [4]: 70 % control and 66 % control
- % control (HCVpp entry), lysine scanning [5]: 67 % control and 62 % control
- % control (HCVpp entry), lysine scanning [6]: 33 % control and 41 % control
- % control (HCVpp entry), lysine scanning [7]: 16 % control and 25 % control
- % control (HCVpp entry), lysine scanning [8]: 29 % control and 23 % control
- % of control at ~30 uM: 5%

Substance: K-W-E-Y-V-L-L-L-F-L-L (KWEYVLLLFLL; HCV peptide) [SEQ ID NO: 108, N-terminal truncation]
- HCVpp % inh: 78%

Substance: G-I-K-W-E-Y-V-L-L-L-F-L-L [SEQ ID NO: 82]
- % control (HCVpp entry), glycine scanning [10]: 74 % control and 88 % control and 118 % control and 120 % control
- % control (HCVpp entry), glycine scanning [11]: 62 % control and 61 % control
- % control (HCVpp entry), glycine scanning [12]: 68 % control and 71 % control
- % control (HCVpp entry), glycine scanning [13]: 90 % control and 66 % control
- % control (HCVpp entry), glycine scanning [14]: 71 % control and 80 % control
- % control (HCVpp entry), glycine scanning [15]: 53 % control and 43 % control
- % control (HCVpp entry), glycine scanning [16]: 46 % control and 41 % control
- % control (HCVpp entry), glycine scanning [17]: 33 % control and 27 % control
- % control (HCVpp entry), glycine scanning [18]: 33 % control and 25 % control
- % control (HCVpp entry), glycine scanning (10 uM of peptide, two values per peptide): 33 % control and 29 % control
- % control (HCVpp entry), glycine scanning [19]: 18 % control and 29 % control
- % of control at ~30 uM: 22%

Substance: A-I-K-W-G-Y-V-L-L-L-F-L-L (AIKWGYVLLLFLL; HCV peptide) [SEQ ID NO: 84, Gly-scan]
- % control (HCVpp entry), glycine scanning [10]: 118 % control and 84 % control and 87 % control and 110 % control
- % control (HCVpp entry), glycine scanning [11]: 62 % control and 75 % control
- % control (HCVpp entry), glycine scanning [12]: 91 % control and 81 % control
- % control (HCVpp entry), glycine scanning [13]: 74 % control and 73 % control
- % control (HCVpp entry), glycine scanning [14]: 70 % control
- % control (HCVpp entry), glycine scanning [15]: 72 % control and 53 % control
- % control (HCVpp entry), glycine scanning [16]: 62 % control and 52 % control
- % control (HCVpp entry), glycine scanning [17]: 41 % control and 39 % control
- % control (HCVpp entry), glycine scanning [18]: 37 % control and 57 % control
- % control (HCVpp entry), glycine scanning [19]: 22 % control and 38 % control
- % of control at ~30 uM: 19%

Substance: A-I-K-W-E-Y-V-L-L-L-F-K-L (AIKWEYVLLLFKL; HCV peptide) [SEQ ID NO: 136]
- % control (HCVpp entry), lysine scanning [1]: 67 % control and 81 % control and 82 % control and 94 % control and 116 % control and 108 % control
- % control (HCVpp entry), lysine scanning [2]: 103 % control and 70 % control
- % control (HCVpp entry), lysine scanning [3]: 71 % control and 90 % control
- % control (HCVpp entry), lysine scanning [4]: 76 % control and 98 % control
- % control (HCVpp entry), lysine scanning [5]: 80 % control and 71 % control
- % control (HCVpp entry), lysine scanning [6]: 65 % control and 84 % control
- % control (HCVpp entry), lysine scanning [7]: 98 % control and 84 % control
- % control (HCVpp entry), lysine scanning [8]: 81 % control and 84 % control
- % control (HCVpp entry), lysine scanning [20]: 34 % control and 68 % control

Substance: A-I-K-W-E-Y-A-L-L-L-F-L-L (AIKWEYALLLFLL; HCV peptide) [SEQ ID NO: 92, Ala-scan]
- % control (HCVpp entry), alanine scanning [1]: 73 % control and 115 % control and 82 % control and 89 % control and 99 % control and 130 % control
- % control (HCVpp entry), alanine scanning [2]: 85 % control and 61 % control
- % control (HCVpp entry), alanine scanning [3]: 90 % control and 80 % control
- % control (HCVpp entry), alanine scanning [4]: 68 % control and 99 % control
- % control (HCVpp entry), alanine scanning [5]: 82 % control and 59 % control
- % control (HCVpp entry), alanine scanning [6]: 42 % control and 64 % control
- % control (HCVpp entry), alanine scanning [7]: 32 % control and 25 % control
- % control (HCVpp entry), alanine scanning [8]: 21 % control and 30 % control
- % of control at ~30 uM: 17%

Substance: A-I-K-W-E-Y-K-L-L-L-F-L-L (AIKWEYKLLLFLL; HCV peptide) [SEQ ID NO: 131]
- % control (HCVpp entry), lysine scanning [1]: 97 % control and 80 % control and 94 % control and 96 % control and 113 % control
- % control (HCVpp entry), lysine scanning [2]: 105 % control and 81 % control
- % control (HCVpp entry), lysine scanning [3]: 85 % control and 68 % control
- % control (HCVpp entry), lysine scanning [4]: 71 % control and 85 % control
- % control (HCVpp entry), lysine scanning [5]: 74 % control and 66 % control
- % control (HCVpp entry), lysine scanning [6]: 71 % control and 68 % control
- % control (HCVpp entry), lysine scanning [7]: 49 % control and 62 % control
- % control (HCVpp entry), lysine scanning [8]: 29 % control and 42 % control
- % control (HCVpp entry), lysine scanning [20]: 16 % control and 14 % control
- % control (HCVpp entry), lysine scanning [9]: 30 % control and 44 % control

Substance: A-I-K-W-E-A-V-L-L-L-F-L-L (AIKWEAVLLLFLL; HCV peptide) [SEQ ID NO: 91, Ala-scan]
- % control (HCVpp entry), alanine scanning [1]: 101 % control and 73 % control and 107 % control and 89 % control and 93 % control and 111 % control
- % control (HCVpp entry), alanine scanning [2]: 81 % control and 84 % control
- % control (HCVpp entry), alanine scanning [3]: 120 % control and 102 % control
- % control (HCVpp entry), alanine scanning [4]: 86 % control and 110 % control
- % control (HCVpp entry), alanine scanning [5]: 59 % control and 66 % control
- % control (HCVpp entry), alanine scanning [6]: 49 % control and 48 % control
- % control (HCVpp entry), alanine scanning [7]: 35 % control and 32 % control
- % control (HCVpp entry), alanine scanning [8]: 17 % control and 27 % control
- % control (HCVpp entry), alanine scanning [20]: 30 % control and 15 % control
- % control (HCVpp entry), alanine scanning [9]: 12 % control and 18 % control
- % of control at ~30 uM: 16%

Substance: P-I-K-W-E-Y-V-L-L-L-F-L-L [SEQ ID NO: 99]
- % control (HCVpp entry), proline scanning [1]: 64 % control and 84 % control and 108 % control and 70 % control and 101 % control and 121 % control
- % control (HCVpp entry), proline scanning [2]: 84 % control and 80 % control
- % control (HCVpp entry), proline scanning [3]: 75 % control and 89 % control
- % control (HCVpp entry), proline scanning [4]: 68 % control and 56 % control
- % control (HCVpp entry), proline scanning [5]: 45 % control and 53 % control
- % control (HCVpp entry), proline scanning [6]: 28 % control and 36 % control
- % control (HCVpp entry), proline scanning [7]: 21 % control and 34 % control
- % control (HCVpp entry), proline scanning [8]: 21 % control and 29 % control
- % control (HCVpp entry), proline scanning [20]: 24 % control and 16 % control
- % of control at ~30 uM: 21%
